Measured values: patent US9932309B2, “2-oxo-3,4-dihydropyridine-5-carboxylates and their use” (UNIVERSITE DE LILLE 2 DROIT ET SANTE, priority 2014, dated 2018)
Counter-ions that a name gives are not always drawn.

Key:
hTGR5 = target: T1, hTGR5 (Homo sapiens, UniProt Q8TDU6); test: TGR5/CRE Luciferase Assay (hTGR5); type: cell-based; conditions: for EC50: HEK 293 cells co-transfected with pCMV tag4b-TGR5h and pCRE TA-Luciferase, overnight incubation; for hTGR5 % trans: percentage of the 10 μM LCA value, HEK 293 cells transfected with hTGR5
T1 construct: expressed in transfected cells; host or cells: HEK293 cells, transiently co-transfected with the pCRE TA-Luciferase reporter
T1 sequence (Q8TDU6 1-330): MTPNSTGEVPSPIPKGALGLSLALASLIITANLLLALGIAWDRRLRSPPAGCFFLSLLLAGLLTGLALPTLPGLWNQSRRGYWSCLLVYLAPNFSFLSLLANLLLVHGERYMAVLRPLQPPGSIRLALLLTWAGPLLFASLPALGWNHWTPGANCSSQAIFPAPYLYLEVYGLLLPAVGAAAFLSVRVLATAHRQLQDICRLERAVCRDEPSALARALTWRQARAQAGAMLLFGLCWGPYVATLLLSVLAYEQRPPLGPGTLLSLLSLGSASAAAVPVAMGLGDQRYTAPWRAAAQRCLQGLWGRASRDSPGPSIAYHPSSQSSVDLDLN
How it was run: (§1)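 Transiently co-transfected HEK293 cells expressing human or mouse TGR5 plus a CRE-luciferase reporter were incubated overnight with rising compound concentrations in duplicate. Luminescence reported cAMP-driven expression; 10 μM lithocholic acid served as positive reference. Curves fitted to a 4-parameter logistic.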

mTGR5 = target: T2, mTGR5 (Mus musculus, UniProt Q80SS6); test: TGR5/CRE Luciferase Assay (mTGR5); type: cell-based; conditions: for mTGR5 % trans: percentage of the 10 μM LCA value, HEK 293 cells transfected with mTGR5; for EC50: HEK 293 cells co-transfected with pCMV AC6-TGR5m and pCRE TA-Luciferase, overnight incubation
T2 construct: expressed in transfected cells; host or cells: HEK293 cells, transiently co-transfected with the pCRE TA-Luciferase reporter
T2 sequence (Q80SS6 1-329): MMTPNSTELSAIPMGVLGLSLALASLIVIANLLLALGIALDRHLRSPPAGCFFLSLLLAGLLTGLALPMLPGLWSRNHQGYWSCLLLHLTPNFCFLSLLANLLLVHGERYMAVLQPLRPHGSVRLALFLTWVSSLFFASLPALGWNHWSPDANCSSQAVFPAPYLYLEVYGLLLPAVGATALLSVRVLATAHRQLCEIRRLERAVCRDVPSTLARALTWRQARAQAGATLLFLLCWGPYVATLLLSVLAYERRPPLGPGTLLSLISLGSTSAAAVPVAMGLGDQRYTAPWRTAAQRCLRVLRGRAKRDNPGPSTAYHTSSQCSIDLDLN
How it was run: as §1

Row | SMILES | EC50 (hTGR5) | hTGR5 % trans (hTGR5) | mTGR5 % trans (mTGR5) | EC50 (mTGR5)
1 | CC1=C(C(=O)OCc2ccccc2)C(c2ccc(Cl)cc2)CC(=O)N1CCN (centres unmarked) [Compound 53, Hydrochloride salt of benzyl 1-(2-aminoethyl)-4-(4-chlorophenyl)-6-methyl-2-oxo-3,4-dihydropyridine-5-carboxylate] | 4.3 µM | 16% | 0% | 
2 | CC1=C(C(=O)OCc2ccccc2)C(c2ccc(Cl)cc2)CC(=O)N1CCCN(C)C (centres unmarked) [Compound 54, Benzyl 4-(4-chlorophenyl)-1-[3-(dimethylamino)propyl]-6-methyl-2-oxo-3,4-dihydropyridine-5-carboxylate] | 4.2 µM | 10% | 0% | 
3 | CC1=C(C(=O)OCc2ccccc2)C(c2ccc(Cl)cc2)CC(=O)N1CCN1CCCC1 (centres unmarked) [Compound 55, Benzyl 4-(4-chlorophenyl)-6-methyl-2-oxo-1-(2-pyrrolidin-1-ylethyl)-3,4-dihydropyridine-5-carboxylate] | 4.5 µM | 47% | 5% | 
4 | CC1=C(C(=O)OCc2ccccc2)C(c2ccc(Cl)cc2)CC(=O)N1CCN1CCCCC1 (centres unmarked) [Compound 56, Benzyl 4-(4-chlorophenyl)-6-methyl-2-oxo-1-[2-(1-piperidyl)ethyl]-3,4-dihydropyridine-5-carboxylate] | 3.6 µM | 50% | 3% | 
5 | CC1=C(C(=O)OCc2ccccc2)C(c2ccc(Cl)cc2)CC(=O)N1CC(=O)OC(C)(C)C (centres unmarked) [Compound 58, Benzyl 1-(2-tert-butoxy-2-oxo-ethyl)-4-(4-chlorophenyl)-6-methyl-2-oxo-3,4-dihydropyridine-5-carboxylate] | 1.34 µM | 50% | 70% | 0.42 µM
6 | CC1=C(C(=O)OCc2ccccc2)C(c2ccc(Cl)cc2)CC(=O)N1Cc1nc(C)no1 (centres unmarked) [Compound 59, Benzyl 4-(4-chlorophenyl)-6-methyl-1-[(3-methyl-1,2,4-oxadiazol-5-yl)methyl]-2-oxo-3,4-dihydropyridine-5-carboxylate] | 1.1 µM | 21% | 18% | 12.4 µM
7 | CC1=C(C(=O)OCc2ccccc2)C(c2ccc(Cl)cc2)CC(=O)N1CC(N)=O (centres unmarked) [Compound 60, Benzyl 1-(2-amino-2-oxo-ethyl)-4-(4-chlorophenyl)-6-methyl-2-oxo-3,4-dihydropyridine-5-carboxylate] | 13.5 µM | 42% | 32% | 14.4 µM
8 | CC1=C(C(=O)OCc2ccccc2)C(c2ccc(Cl)cc2)CC(=O)N1CCS(C)(=O)=O (centres unmarked) [Compound 62, Benzyl 4-(4-chlorophenyl)-6-methyl-1-(2-methylsulfonylethyl)-2-oxo-3,4-dihydropyridine-5-carboxylate] | 2.3 µM | 69% | 42% | 5.9 µM
9 | CC1=C(C(=O)OCc2ccccc2)C(c2ccc(Cl)cc2)CC(=O)N1CC#N (centres unmarked) [Compound 63, Benzyl 4-(4-chlorophenyl)-1-(cyanomethyl)-6-methyl-2-oxo-3,4-dihydropyridine-5-carboxylate] | 2.2 µM | 50% | 57% | 2 µM
10 | COc1ccccc1COC(=O)C1=C(C)N(Cc2ccco2)C(=O)CC1c1ccc(Cl)cc1 (centres unmarked) [Compound 66] | 0.2 µM | 62% | 78% | 0.1 µM
11 | CCOC(=O)CN1C(=O)CC(c2ccc(Cl)cc2)C(C(=O)OCc2ccccc2OC)=C1C (centres unmarked) [Compound 69, (2-methoxyphenyl)methyl 4-(4-chlorophenyl)-1-(2-ethoxy-2-oxo-ethyl)-6-methyl-2-oxo-3,4-dihydropyridine-5-carboxylate] | 0.3 µM | 105% | 104% | 0.4 µM
12 | COc1ccccc1COC(=O)C1=C(C)N(CC2CC2)C(=O)CC1c1ccc(Cl)cc1 (centres unmarked) [Compound 70, o-methoxybenzyl 4-(4-chlorophenyl)-1-(cyclopropylmethyl)-6-methyl-2-oxo-3,4-dihydropyridine-5-carboxylate] | 0.07 µM | 65% | 102% | 0.08 µM
13 | COCCCN1C(=O)CC(c2ccc(Cl)cc2)C(C(=O)OCc2ccccc2OC)=C1C (centres unmarked) [Compound 71, (2-methoxyphenyl)methyl 4-(4-chlorophenyl)-1-(3-methoxypropyl)-6-methyl-2-oxo-3,4-dihydropyridine-5-carboxylate] | 0.2 µM | 94% | 85% | 0.8 µM
14 | COc1ccccc1COC(=O)C1=C(C)N(CC2OCCO2)C(=O)CC1c1ccc(Cl)cc1 (centres unmarked) [Compound 72, (2-methoxyphenyl)methyl 4-(4-chlorophenyl)-1-(1,3-dioxolan-2-ylmethyl)-6-methyl-2-oxo-3,4-dihydropyridine-5-carboxylate] | 0.08 µM | 99% | 92% | 0.2 µM
15 | CCOC(=O)C1=C(c2ccccc2)N(C)C(=O)CC1c1ccc(Cl)cc1 (centres unmarked) [Example 20, Ethyl 4-(4-chlorophenyl)-1-methyl-2-oxo-6-phenyl-3,4-dihydropyridine-5-carboxylate] | 3 µM | 42% | 53% | 2.5 µM
16 | COCCN1C(=O)CC(c2ccc(Cl)cc2)C(C(=O)NCc2ccccc2)=C1C (centres unmarked) [Example 75, N-benzyl-4-(4-chlorophenyl)-1-(2-methoxyethyl)-6-methyl-2-oxo-3,4-dihydropyridine-5-carboxamide] | 7.8 µM | 34% | 25% | 18.3 µM
17 | COCCN1C(=O)CC(c2ccc(Cl)cc2)C(C(=O)N2CCCc3ccccc32)=C1C (centres unmarked) [Example 77, 4-(4-chlorophenyl)-5-(3,4-dihydro-2H-quinoline-1-carbonyl)-1-(2-methoxyethyl)-6-methyl-3,4-dihydropyridin-2-one] | 2.9 µM | 71% | 73% | 12.3 µM
18 | CC1=C(C(=O)OCc2ccc(C)cc2)C(c2ccc(Cl)cc2)CC(=O)N1C (centres unmarked) [Example 79, p-tolylmethyl 4-(4-chlorophenyl)-1,6-dimethyl-2-oxo-3,4-dihydropyridine-5-carboxylate] | 0.7 µM | 80% | 73% | 0.7 µM
19 | CC1=C(C(=O)OCc2ccc(C(F)(F)F)cc2)C(c2ccc(Cl)cc2)CC(=O)N1C (centres unmarked) [Example 80, [4-(trifluoromethyl)phenyl]methyl 4-(4-chlorophenyl)-1,6-dimethyl-2-oxo-3,4-dihydropyridine-5-carboxylate] | 1.5 µM | 60% | 67% | 1.4 µM
20 | CC1=C(C(=O)OCc2ccc(F)cc2Cl)C(c2ccc(Cl)cc2)CC(=O)N1C (centres unmarked) [Example 81, (2-chloro-4-fluoro-phenyl)methyl 4-(4-chlorophenyl)-1,6-dimethyl-2-oxo-3,4-dihydropyridine-5-carboxylate] | 0.5 µM | 86% | 62% | 1.3 µM
21 | CC1=C(C(=O)OCc2c(F)cccc2F)C(c2ccc(Cl)cc2)CC(=O)N1C (centres unmarked) [Example 82, (2,6-difluorophenyl)methyl 4-(4-chlorophenyl)-1,6-dimethyl-2-oxo-3,4-dihydropyridine-5-carboxylate] | 0.7 µM | 74% | 59% | 1.5 µM
22 | COc1ccc(COC(=O)C2=C(C)N(C)C(=O)CC2c2ccc(Cl)cc2)cc1OC (centres unmarked) [Example 83, (3,4-dimethoxyphenyl)methyl 4-(4-chlorophenyl)-1,6-dimethyl-2-oxo-3,4-dihydropyridine-5-carboxylate] | 1.2 µM | 69% | 88% | 0.4 µM
23 | COCCN1C(=O)CC(c2ccc(Cl)cc2)C(C(=O)OCc2ccccc2F)=C1C (centres unmarked) [Example 84, (2-fluorophenyl)methyl 4-(4-chlorophenyl)-1-(2-methoxyethyl)-6-methyl-2-oxo-3,4-dihydropyridine-5-carboxylate] | 0.4 µM | 71% | 71% | 0.5 µM
24 | COCCN1C(=O)CC(c2ccc(Cl)cc2)C(C(=O)OCc2ccc(F)cc2)=C1C (centres unmarked) [Example 86, (4-fluorophenyl)methyl 4-(4-chlorophenyl)-1-(2-methoxyethyl)-6-methyl-2-oxo-3,4-dihydropyridine-5-carboxylate] | 0.4 µM | 71% | 82% | 0.4 µM
